# Measurements reported in patent US20240254089A1, “MODULATORS OF MAS-RELATED G-PROTEIN RECEPTOR X4 AND RELATED PRODUCTS AND METHODS” (ESCIENT PHARMACEUTICALS, INC., priority 2020, published 2024).
# Target: T1, human MRGPR X4 (Homo sapiens, UniProt Q96LA9)
# T1 construct: expressed in transfected cells
# Assay: MRGPR X4 antagonist activity, IP-One Gq HTRF assay in stably transfected HEK cells
# Format: cell-based
# Conditions: not given
# Experimental: HEK cells stably transfected to express human MIRGPR X4 were maintained in an incubator at 37° C. with 5% CO2 and grown in DMEM media with 10% fetal bovine serum (FBS) and […] each of sodium pyruvate, Glutamax, penicillin/streptomycin, and Geneticin. HEK cells stably transfected to express mouse MRGPR A1 were maintained in the same incubator and grown in DMEM media with 10% FBS, 1% each of sodium pyruvate, Glutamax, penicillin/streptomycin, Geneticin, and 2.2 mg/mL Hygromycin.
# Cells were plated in a 384-well assay plate at 20,000 cells per well in 12 μL of Opti-MEM and kept in an incubator overnight. On the day of the assay, compounds solubilized at 10 mM in DMSO were added as a 10-point curve (10 uM final top concentration with 1:3 serial dilutions) using a Tecan D300E digital dispenser. Agonists were diluted in assay buffer (final concentrations of 5.7 mM Tris-HCl, 43 mM NaCl, 50 mM LiCl, pH=8) and 2 μL of the appropriate agonist are added to each well. Final concentrations of agonists were 10 μM bilirubin, 20 μM deoxycholic acid, or 100 μM conjugated bilirubin (obtained from Lee Biosolutions, catalog #910-12). Final concentrations of DMSO were kept consistent across the plate. Plates were incubated in the dark for 1 h at 37° C. and then for 30 minutes at room temperature. IP-1 standards and HTRF detection reagents were added according to the IP-One—Gq Kit purchased from Cisbio (part number 62IPAPEJ) and incubated in the dark for 1 h at room temperature. The plate was read on a Molecular Devices SpectraMax iD5 plate reader. The HTRF ratio was calculated from the raw data and graphed using GraphPad Prism to calculate an IC50 value for each compound.
# T1 sequence (Q96LA9 whole entry): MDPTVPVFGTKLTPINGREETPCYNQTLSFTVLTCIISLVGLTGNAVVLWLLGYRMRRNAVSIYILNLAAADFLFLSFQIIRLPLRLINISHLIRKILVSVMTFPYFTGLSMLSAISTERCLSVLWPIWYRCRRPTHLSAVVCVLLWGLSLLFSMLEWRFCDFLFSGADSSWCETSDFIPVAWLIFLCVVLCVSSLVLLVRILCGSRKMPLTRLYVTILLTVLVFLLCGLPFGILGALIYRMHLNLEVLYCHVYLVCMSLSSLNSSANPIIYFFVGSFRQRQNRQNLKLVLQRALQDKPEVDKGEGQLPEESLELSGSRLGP
row,Structure (SMILES),IC50 [µM]
1,COc1ccnc(CCNC(=O)c2nn(Cc3ccc(Cl)cc3)c3ccccc23)c1 [Compound 62],0.1 to 0.5
2,Cc1ccc(Cn2nc(C(=O)NCCc3ccccn3)c3ccccc32)cc1 [Compound 63],0.1 to 0.5
3,COc1cc(Cl)ccc1Cn1nc(C(=O)NCCc2nnc3n2CCCCC3)c2ccccc21 [Compound 64],0.1 to 0.5
4,Cc1ccc(Cn2nc(C(=O)NCCc3nc4c(s3)COCC4)c3ccccc32)cc1 [Compound 65],0.1 to 0.5
5,COc1ccc(Cn2nc(C(=O)NCCc3cccnc3)c3ccccc32)cc1 [Compound 66],0.1 to 0.5
6,Cc1ccc(Cn2nc(C(=O)NCCc3cccnc3)c3c(C#N)cccc32)cc1 [Compound 67],0.1 to 0.5
7,Cc1cc(Cn2nc(C(=O)NCCc3nc4c(s3)CCCC4)c3ccccc32)ccc1Cl [Compound 68],0.1 to 0.5
8,Cc1ccc(Cn2nc(C(=O)NCCc3nc4c(s3)CCCC4)c3c(F)cccc32)cc1 [Compound 69],0.1 to 0.5
9,Cc1ccc(Cn2nc(C(=O)NCCc3cccnc3)c3c(F)cccc32)cc1 [Compound 70],0.501 to 1
10,O=C(NCCc1c[nH]c2ccccc12)c1nn(Cc2ccc(OC(F)F)cc2)c2ccccc12 [Compound 71],0.501 to 1
11,N#Cc1ccc(Cn2nc(C(=O)NCCc3cccnc3)c3ccccc32)cc1 [Compound 72],0.501 to 1
12,Cc1ccc(Cn2nc(C(=O)NCCc3c[nH]nn3)c3ccccc32)cc1 [Compound 73],0.501 to 1
13,CC(c1ccc(Cl)cc1)n1nc(C(=O)NCCc2nnc3n2CCCCC3)c2ccccc21 (centres unmarked) [Compound 74],0.501 to 1
14,COc1cccc(CCNC(=O)c2nn(Cc3ccc(Cl)cc3)c3ccccc23)n1 [Compound 75],0.501 to 1
15,Cc1ccc(Cn2nc(C(=O)NCCc3ccn(C)n3)c3ccccc32)cc1 [Compound 76],0.501 to 1
16,Cc1cccnc1CCNC(=O)c1nn(Cc2ccc(Cl)cc2)c2ccccc12 [Compound 77],0.501 to 1
17,Cc1ccc(Cn2nc(C(=O)NCCc3ccncc3)c3ccccc32)cc1 [Compound 78],0.501 to 1
18,CCc1nc(CCNC(=O)c2nn(Cc3ccc(Cl)cc3)c3ccccc23)sc1C [Compound 79],0.501 to 1
19,Cc1nnc(CCNC(=O)c2nn(Cc3ccc(Cl)cc3)c3ccccc23)n1C [Compound 80],0.501 to 1
20,O=C(NCCc1nc2c(s1)CCCC2)c1nn(Cc2cccc(F)c2)c2ccccc12 [Compound 81],0.501 to 1
21,O=C(NCCc1nc2c(s1)CCCC2)c1nn(Cc2ccc(OC(F)F)cc2)c2ccccc12 [Compound 82],0.501 to 1
22,Cc1ccc(Cn2nc(C(=O)NCCc3noc(C4CC4)n3)c3ccccc32)cc1 [Compound 83],0.501 to 1
23,Cc1ccc(Cn2nc(C(=O)NCCc3cc4ccccc4s3)c3ccccc32)cc1 [Compound 84],0.501 to 1
24,Cc1ccc(Cn2nc(C(=O)NCCc3noc(C(C)C)n3)c3ccccc32)cc1 [Compound 85],0.501 to 1

row,Structure (SMILES),IC50 [µM]
1,O=C(NCCc1ccc(C(F)(F)F)nc1)c1nn(Cc2ccc(Cl)cc2)c2ccccc12 [Compound 86],0.501 to 1
2,O=C(NCCc1cccnc1)c1nn(Cc2cccc(Cl)c2)c2ccccc12 [Compound 87],0.501 to 1
3,Cc1nc(CCNC(=O)c2nn(Cc3ccc(Cl)cc3)c3ccccc23)sc1C(=O)O [Compound 88],0.501 to 1
4,O=C(NCCc1cccnc1)c1nn(Cc2ccccc2Cl)c2ccccc12 [Compound 89],0.501 to 1
5,O=C(NCCc1ccno1)c1nn(Cc2ccc(Cl)cc2)c2ccccc12 [Compound 90],0.501 to 1
6,CC(C)c1ccc(Cn2nc(C(=O)NCCc3ccccn3)c3ccccc32)cc1 [Compound 91],0.501 to 1
7,COCCn1cnnc1CCNC(=O)c1nn(Cc2ccc(Cl)cc2)c2ccccc12 [Compound 92],0.501 to 1
8,O=C(NCCc1c[nH]c2ccccc12)c1nn(Cc2ccc(OC(F)(F)F)cc2)c2ccccc12 [Compound 93],1 to 2.5
9,Cc1ccc(Cn2nc(C(=O)NCCc3cn(C)c4ccccc34)c3ccccc32)cc1 [Compound 94],1 to 2.5
10,O=C(NCCc1nc2c(s1)CCCC2)c1nn(Cc2ccccc2Cl)c2ccccc12 [Compound 95],1 to 2.5
11,O=C(NCCc1cccnc1)c1nn(Cc2cccc(F)c2)c2ccccc12 [Compound 96],1 to 2.5
12,Cc1ccc(Cn2nc(C(=O)NCCc3cnccn3)c3ccccc32)cc1 [Compound 97],1 to 2.5
13,Cc1cc(Cl)ccc1Cn1nc(C(=O)NCCc2nc3c(s2)CCCC3)c2ccccc21 [Compound 98],1 to 2.5
14,CC(C)n1cnnc1CCNC(=O)c1nn(Cc2ccc(Cl)cc2)c2ccccc12 [Compound 99],1 to 2.5
15,O=C(NCCc1ccon1)c1nn(Cc2ccc(Cl)cc2)c2ccccc12 [Compound 100],1 to 2.5
16,COc1cccc(Cn2nc(C(=O)NCCc3cccnc3)c3ccccc32)c1 [Compound 101],1 to 2.5
17,O=C(NCCc1cncnc1)c1nn(Cc2ccc(Cl)cc2)c2ccccc12 [Compound 102],1 to 2.5
18,Cc1ccc(Cn2nc(C(=O)NCCc3nc4ccccc4o3)c3ccccc32)cc1 [Compound 103],1 to 2.5
19,Cc1ccc(Cn2nc(C(=O)NCCc3ccc[nH]3)c3ccccc32)cc1 [Compound 104],1 to 2.5
20,O=C(NCCc1noc(-c2ccccc2)n1)c1nn(Cc2ccc(Cl)cc2)c2ccccc12 [Compound 105],1 to 2.5
21,O=C(NCCc1nnc2n1CCCCC2)c1nn(Cc2ccc(-c3ccccc3)cc2)c2ccccc12 [Compound 106],1 to 2.5
22,Cc1ccc(Cn2nc(C(=O)NCCc3nncn3C)c3ccccc32)cc1 [Compound 107],1 to 2.5
23,CC(C)c1ccc(Cn2nc(C(=O)NCCc3nc4c(s3)CCCC4)c3ccccc32)cc1 [Compound 108],1 to 2.5
24,Cc1ccc(Cn2nc(C(=O)NCCc3nc4c(s3)CCCC4)c3cc(Cl)ccc32)cc1 [Compound 110],1 to 2.5

row,Structure (SMILES),IC50 [µM]
1,O=C(Nc1ccc2cccnc2c1)c1nn(Cc2ccc(Cl)cc2)c2ccccc12 [Compound 111],1 to 2.5
2,CC(C)(C)c1ccc(Cn2nc(C(=O)NCCc3ccccn3)c3ccccc32)cc1 [Compound 112],1 to 2.5
3,Cc1ccc(Cn2nc(C(=O)NCCc3ncnn3C)c3ccccc32)cc1 [Compound 113],1 to 2.5
4,COc1cc(Cl)ccc1Cn1nc(C(=O)NCCc2cccnc2)c2ccccc21 [Compound 114],1 to 2.5
5,Cc1cccc(Cn2nc(C(=O)NCCc3cccnc3)c3ccccc32)c1 [Compound 115],1 to 2.5
6,Cc1ccc(Cn2nc(C(=O)NCCc3nnc4n3CCCCC4)c3cccc(F)c32)cc1 [Compound 116],1 to 2.5
7,O=C(NCCc1cccc(C(F)(F)F)n1)c1nn(Cc2ccc(Cl)cc2)c2ccccc12 [Compound 117],1 to 2.5
8,CC(c1ccc(Cl)cc1)n1nc(C(=O)NCCc2nc3c(s2)CCCC3)c2ccccc21 (centres unmarked) [Compound 118],1 to 2.5
9,Cc1cc(C)nc(CCNC(=O)c2nn(Cc3ccc(Cl)cc3)c3ccccc23)n1 [Compound 119],1 to 2.5
10,Cc1ccc(CCNC(=O)c2nn(Cc3ccc(OC(F)F)cc3)c3ccccc23)cc1 [Compound 120],1 to 2.5
11,O=C(NCCc1ccncn1)c1nn(Cc2ccc(Cl)cc2)c2ccccc12 [Compound 121],1 to 2.5
12,Cc1ccc(Cn2nc(C(=O)NCCc3ccco3)c3ccccc32)cc1 [Compound 122],1 to 2.5
13,COc1cc(Cl)ccc1Cn1nc(C(=O)NCCc2nc3c(s2)CCCC3)c2ccccc21 [Compound 123],> 2.5
14,Cc1ccc(Cn2nc(C(=O)NCCc3ccnn3C)c3ccccc32)cc1 [Compound 124],> 2.5
15,O=C(NCCc1cccnc1)c1nn(Cc2ccccc2F)c2ccccc12 [Compound 125],> 2.5
16,Cc1ccc(Cn2nc(C(=O)NCCc3ncon3)c3ccccc32)cc1 [Compound 126],> 2.5
17,CC(Cc1ccccn1)NC(=O)c1nn(Cc2ccc(Cl)cc2)c2ccccc12 (centres unmarked) [Compound 127],> 2.5
18,Cc1ccc(Cn2nc(C(=O)NCCc3cnoc3)c3ccccc32)cc1 [Compound 128],> 2.5
19,O=C(Nc1cccnc1)c1nn(Cc2ccc(Cl)cc2)c2ccccc12 [Compound 130],> 2.5
20,O=C(NCCc1nc2c(s1)CCCC2)c1nn(Cc2ccc(Cl)cc2F)c2ccccc12 [Compound 131],0.1 to 0.5
21,O=C(CNC(=O)c1nn(Cc2ccc(Cl)cc2)c2ccccc12)c1cccnc1 [Compound 132],0.1 to 0.5
22,O=C(Nc1cncnc1)c1nn(Cc2ccc(Cl)cc2)c2ccccc12 [Compound 133],1 to 2.5
23,O=C(Nc1cnc2ccccc2c1)c1nn(Cc2ccc(Cl)cc2)c2ccccc12 [Compound 134],1 to 2.5
24,"Cc1ccc(Cn2nc(C(=O)NCCc3c[nH]c4ccccc34)c3ccccc32)cc1 [Compound 135, N-(2-(1H-indol-3-yl)ethyl)-1-(4-methylbenzyl)-1H-indazole-3-carboxamide]",1 to 2.5

# Same assay, conditions: versus 20 μM deoxycholic acid agonist; HEK cells expressing human MRGPR X4; read-out: MRGPRX4 Antagonist Activity
row,Structure (SMILES),IC50 [µM]
1,Cc1ccc(Cn2nc(C(=O)NCCc3nnc(C4CCOCC4)[nH]3)c3ccccc32)cc1 [Compound 109],1 to 2.5
2,O=C(NCCc1nnc(C2CCOCC2)[nH]1)c1nn(Cc2cccc(F)c2)c2ccccc12 [Compound 129],> 2.5
